Reference: ChEMBL document CHEMBL1127870, “Substituted 4H-pyrido[1,2-a]pyrimidin-4-one angiotensin II receptor antagonists” (Bioorg Med Chem Lett, 1994)

The compounds below were run against T1, Type-1 angiotensin II receptor (Bos taurus, UniProt P25104) (assay: Binding affinity for angiotensin II receptor of bovine adrenal cortex). Settings: not given.
T1 sequence (P25104 whole entry): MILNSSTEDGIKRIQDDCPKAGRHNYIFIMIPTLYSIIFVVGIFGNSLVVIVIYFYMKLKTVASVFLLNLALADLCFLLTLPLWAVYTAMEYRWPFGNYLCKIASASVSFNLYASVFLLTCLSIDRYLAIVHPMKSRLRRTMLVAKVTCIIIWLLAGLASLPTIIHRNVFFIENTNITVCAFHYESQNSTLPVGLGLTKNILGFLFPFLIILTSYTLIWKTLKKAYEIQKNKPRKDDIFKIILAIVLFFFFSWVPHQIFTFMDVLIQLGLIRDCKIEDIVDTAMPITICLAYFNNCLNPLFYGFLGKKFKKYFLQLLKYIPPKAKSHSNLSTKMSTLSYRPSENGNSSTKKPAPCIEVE
Type: tissue-based

Compound | IC50
CCCOc1nc2ccccn2c(=O)c1Cc1ccc(-c2ccccc2-c2nn[nH]n2)cc1 | 0.25 µM
CCCCOc1nc2ccccn2c(=O)c1Cc1ccc(-c2ccccc2-c2nnn[nH]2)cc1 | 2.4 µM
CCCCc1nc(Cl)c(CO)n1Cc1ccc(-c2ccccc2-c2nn[nH]n2)cc1 [LOSARTAN] | 0.3 µM
CCCOc1nc2cc(C)ccn2c(=O)c1Cc1ccc(-c2ccccc2-c2nn[nH]n2)cc1 | 4 µM
Cc1ccc2nc(OCC(C)C)c(Cc3ccc(-c4ccccc4-c4nnn[nH]4)cc3)c(=O)n2c1 | 4 µM
CCOc1nc2ccccn2c(=O)c1Cc1ccc(-c2ccccc2-c2nnn[nH]2)cc1 | 4.4 µM

More lines, in order of falling IC50, values ahead:

IC50 | Compound
69.3 µM | CC(C)Oc1nc2ccc(C(=O)O)cn2c(=O)c1Cc1ccc(-c2ccccc2-c2nnn[nH]2)cc1
14 µM | COc1nc2ccccn2c(=O)c1Cc1ccc(-c2ccccc2-c2nn[nH]n2)cc1
6 µM | Cc1ccc2nc(OC(C)C)c(Cc3ccc(-c4ccccc4-c4nnn[nH]4)cc3)c(=O)n2c1
6 µM | CCCOc1nc2c(C)cccn2c(=O)c1Cc1ccc(-c2ccccc2-c2nn[nH]n2)cc1
4.9 µM | CCOC(=O)c1ccc2nc(OC(C)C)c(Cc3ccc(-c4ccccc4-c4nn[nH]n4)cc3)c(=O)n2c1
1.6 µM | CCCOc1nc2ccc(C)cn2c(=O)c1Cc1ccc(-c2ccccc2-c2nn[nH]n2)cc1
1 µM | CC(C)COc1nc2ccc(C(C)O)cn2c(=O)c1Cc1ccc(-c2ccccc2-c2nn[nH]n2)cc1 (centres undefined)

These compounds were tested on Rattus norvegicus (assay: Tested for drop in blood pressure over 5 hr when administered orally at 10 mg/kg in high renin rat hypertension model). Settings: route oral.
Type: functional

Compound | Blood pressure
CCCOc1nc2ccccn2c(=O)c1Cc1ccc(-c2ccccc2-c2nn[nH]n2)cc1 | 50 mmHg
